From ChEMBL document CHEMBL5257091, “Hydrazinecarbonyl-thiazol-2-acetamides with pronounced apoptotic behavior: synthesis, in vitro/in vivo anti-proliferative activity and molecular modeling simulations” (Bioorg Med Chem Lett, 2023)

Columns and labels:
HEp-2 = test: Antiproliferative activity against human HEp-2 cells assessed as inhibition of cell growth incubated for 24 hrs by MTT assay; assay type: functional, cell-based; conditions: HEp-2, 24 h
HepG2 = test: Antiproliferative activity against human HepG2 cells assessed as inhibition of cell growth incubated for 24 hrs by MTT assay; assay type: functional, cell-based; conditions: HepG2, 24 h
HeLa = test: Antiproliferative activity against human HeLa cells assessed as inhibition of cell growth incubated for 24 hrs by MTT assay; assay type: functional, cell-based
HCT-116 = test: cells; conditions: Homo sapiens, HCT-116, 24 h
Description: Antiproliferative activity against human HCT-116 cells assessed as inhibition of cell growth incubated for 24 hrs by MTT assay

MCF7 = test: Antiproliferative activity against human MCF7 cells assessed as inhibition of cell growth incubated for 24 hrs by MTT assay; assay type: functional, cell-based; conditions: MCF7, 24 h
[1] = Selectivity index, ratio of IC50 for cytotoxicity against human WI-38 cells to IC50 for antiproliferative activity against human HepG2 cells; assay type: toxicity, cell-based; conditions: WI-38 cells and HepG2 cells, read-out: Ratio IC50
Dihydrofolate reductase = biological target: T1, Dihydrofolate reductase (Homo sapiens, UniProt P00374); test: Inhibition of DHFR (unknown origin) incubated for 2 to 5 mins by absorbance based analysis
T1 sequence (P00374 whole entry): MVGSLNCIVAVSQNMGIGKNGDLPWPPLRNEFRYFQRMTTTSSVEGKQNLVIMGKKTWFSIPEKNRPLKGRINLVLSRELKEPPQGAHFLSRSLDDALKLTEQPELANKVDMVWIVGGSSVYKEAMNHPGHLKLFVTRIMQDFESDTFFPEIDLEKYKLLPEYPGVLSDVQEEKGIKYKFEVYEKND

[2] = Selectivity index, ratio of IC50 for cytotoxicity against human WI-38 cells to IC50 for antiproliferative activity against human HCT-116 cells; assay type: toxicity, cell-based; conditions: WI-38 cells and HCT-116 cells, read-out: Ratio IC50
[3] = biological target: Epidermal growth factor receptor (Homo sapiens, UniProt P00533); test: Inhibition of EGFR (unknown origin) by fluorimetric assay
Epidermal growth factor receptor, sequence (P00533 whole entry): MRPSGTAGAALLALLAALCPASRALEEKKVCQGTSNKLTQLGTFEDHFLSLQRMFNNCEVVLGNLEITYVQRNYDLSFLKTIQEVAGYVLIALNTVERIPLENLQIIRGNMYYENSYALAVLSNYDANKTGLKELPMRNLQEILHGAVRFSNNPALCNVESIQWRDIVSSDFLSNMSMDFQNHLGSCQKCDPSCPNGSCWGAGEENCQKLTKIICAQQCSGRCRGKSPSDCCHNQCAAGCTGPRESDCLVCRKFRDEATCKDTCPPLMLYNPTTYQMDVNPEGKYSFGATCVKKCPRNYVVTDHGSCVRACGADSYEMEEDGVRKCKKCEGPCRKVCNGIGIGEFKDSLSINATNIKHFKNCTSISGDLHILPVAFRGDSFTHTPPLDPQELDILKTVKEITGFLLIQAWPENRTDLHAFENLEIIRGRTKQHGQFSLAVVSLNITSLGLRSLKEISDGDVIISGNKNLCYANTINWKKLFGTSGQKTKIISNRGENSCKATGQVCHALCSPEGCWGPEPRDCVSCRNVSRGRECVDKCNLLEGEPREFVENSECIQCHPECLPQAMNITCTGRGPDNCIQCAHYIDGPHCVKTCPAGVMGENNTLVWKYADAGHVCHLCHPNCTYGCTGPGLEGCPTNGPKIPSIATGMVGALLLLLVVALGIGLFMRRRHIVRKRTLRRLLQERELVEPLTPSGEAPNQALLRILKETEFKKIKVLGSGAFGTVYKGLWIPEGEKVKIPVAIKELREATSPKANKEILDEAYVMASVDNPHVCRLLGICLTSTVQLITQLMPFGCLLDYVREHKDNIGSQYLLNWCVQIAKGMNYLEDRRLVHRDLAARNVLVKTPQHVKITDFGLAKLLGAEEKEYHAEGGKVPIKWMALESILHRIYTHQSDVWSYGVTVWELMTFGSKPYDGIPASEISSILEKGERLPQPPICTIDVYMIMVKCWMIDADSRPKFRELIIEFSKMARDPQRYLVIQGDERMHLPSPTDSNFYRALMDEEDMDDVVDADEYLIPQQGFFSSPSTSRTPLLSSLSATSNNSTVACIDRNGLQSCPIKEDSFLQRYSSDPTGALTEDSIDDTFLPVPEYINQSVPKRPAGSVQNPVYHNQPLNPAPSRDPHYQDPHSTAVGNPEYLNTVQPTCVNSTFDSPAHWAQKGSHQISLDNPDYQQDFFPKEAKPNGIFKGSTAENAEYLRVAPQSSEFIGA

[4] = Selectivity index, ratio of IC50 for cytotoxicity against human WI-38 cells to IC50 for antiproliferative activity against human HEp-2 cells; assay type: toxicity, cell-based; conditions: WI-38 cells and HEp-2 cells, read-out: Ratio IC50
[5] = Selectivity index, ratio of IC50 for cytotoxicity against human WI-38 cells to IC50 for antiproliferative activity against human PC-3 cells; assay type: toxicity, cell-based; conditions: WI-38 cells and PC-3 cells, read-out: Ratio IC50
PC-3 = test: Antiproliferative activity against human PC-3 cells assessed as inhibition of cell growth incubated for 24 hrs by MTT assay; assay type: functional, cell-based; conditions: PC-3, 24 h
[6] = Selectivity index, ratio of IC50 for cytotoxicity against human WI-38 cells to IC50 for antiproliferative activity against human HeLa cells; assay type: toxicity, cell-based; conditions: WI-38 cells and HeLa cells, read-out: Ratio IC50
[7] = Selectivity index, ratio of IC50 for cytotoxicity against human WI-38 cells to IC50 for antiproliferative activity against human MCF7 cells; assay type: toxicity, cell-based; conditions: WI-38 cells and MCF7 cells, read-out: Ratio IC50
[8] = Cytotoxicity against human WI-38 cells assessed as inhibition of cell growth incubated for 24 hrs by MTT assay; assay type: toxicity, cell-based

SMILES | IC50 (HEp-2) [µM] | IC50 (HepG2) [µM] | IC50 (HeLa) [µM] | IC50 (HCT-116) [µM] | IC50 (MCF7) [µM] | selectivity ratio [1] | IC50 (Dihydrofolate reductase) [µM] | selectivity ratio [2] | IC50 [3] [µM] | selectivity ratio [4] | selectivity ratio [5] | IC50 (PC-3) [µM] | selectivity ratio [6] | selectivity ratio [7] | IC50 at 24 h [8] [µM]
CC(=O)NNC(=O)c1csc(NC(C)=O)n1 | 72.1 | 87.2 | 57.4 | 69.3 | 49.4 | – | – | – | – | – | – | – | – | – | –
CC(=O)Nc1nc(C(=O)NNC(=O)CCN2CCOCC2)cs1 | 9.19 | 7.34 | 3.81 | 13.2 | 5.81 | 7.29 | 0.159 | 4.06 | 0.143 | 5.82 | 5.08 | 10.5 | 14 | 9.2 | 53.5
CC(=O)Nc1nc(C(=O)NNC(=O)CN2CCN(C)CC2)cs1 | 89.9 | 83.6 | 78.6 | 91.8 | 62.8 | – | – | – | – | – | – | – | – | – | –
CC(=O)Nc1nc(C(=O)NNC(=O)CCl)cs1 | 58 | 43.8 | 35.3 | 52.3 | 39.1 | – | – | – | – | – | – | 54.7 | – | – | –
CC(=O)Nc1nc(C(=O)NNC(=O)CCN2CCN(C)CC2)cs1 | 11.2 | 9.85 | 7.92 | 18.4 | 8.36 | 4.76 | 0.678 | 2.54 | 0.131 | 4.17 | 3.27 | 14.3 | 5.92 | 5.6 | 46.9
CCC(=O)NNC(=O)c1csc(NC(C)=O)n1 | 43.2 | 39.3 | 26.9 | 42.7 | 32.8 | – | – | – | – | – | – | 47.5 | – | – | –
